According to PubChem BioAssay (NCI):
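1) Cells in 96-well plates. 2) Compound, 48 h, 5 concentrations. 3) Linear interpolation between surrounding doses. 4) Unreached endpoint = highest concentration. Definition used: TGI = concentration required for complete inhibition of growth.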

Tests used:
Assay in all cases: NCI tumour cell line growth inhibition, 48 h
[1] = tested on: SK-MEL-2 melanoma
[2] = tested on: M19-MEL melanoma
[3] = tested on: NCI-H522 lung
[4] = tested on: CCRF-CEM leukemia
[5] = tested on: NCI-H23 lung
[6] = tested on: UACC-62 melanoma
[7] = tested on: SNB-19 CNS
[8] = tested on: HOP-92 NSCLC
[9] = tested on: HT29 colon
[10] = tested on: MALME-3M melanoma
[11] = tested on: HOP-62 NSCLC
[12] = tested on: RXF-631 renal
[13] = tested on: NCI-H226 lung
[14] = tested on: RXF 393 renal
[15] = tested on: A549 NSCLC
[16] = tested on: SW-620 colon
[17] = tested on: TK-10 renal
[18] = tested on: OVCAR-4 ovarian
[19] = tested on: K-562 leukemia
[20] = tested on: SN12C renal
[21] = tested on: OVCAR-3 ovarian
[22] = tested on: DMS 114 small cell lung
[23] = tested on: RPMI-8226 leukemia
[24] = tested on: SK-OV-3 ovarian
[25] = tested on: M14 melanoma
[26] = tested on: SK-MEL-5 melanoma
[27] = tested on: DLD-1 colon
[28] = tested on: ACHN renal
[29] = tested on: OVCAR-8 ovarian
[30] = tested on: OVCAR-5 ovarian
[31] = tested on: EKVX NSCLC
[32] = tested on: CAKI-1 renal
[33] = tested on: SK-MEL-28 melanoma
[34] = tested on: SF-295 CNS
[35] = tested on: SF-539 CNS
[36] = tested on: LOX IMVI melanoma
[37] = tested on: HCC-2998 colon
[38] = tested on: IGROV1 ovarian
[39] = tested on: SNB-75 CNS
[40] = tested on: SF-268 CNS
[41] = tested on: KM20L2 colon
[42] = tested on: 786-0 renal
[43] = tested on: COLO 205 colon
[44] = tested on: XF 498 CNS
[45] = tested on: UACC-257 melanoma
[46] = tested on: MOLT-4 leukemia
[47] = tested on: HL-60(TB) leukemia
[48] = tested on: U251 CNS
[49] = tested on: HOP-18 NSCLC
[50] = tested on: HCT-116 colon
[51] = tested on: DMS 273 small cell lung
[52] = tested on: HCT-15 colon
[53] = tested on: A498 renal
[54] = tested on: KM12 colon
[55] = tested on: NCI-H460 lung
[56] = tested on: UO-31 renal

CC1(C)C(=NNC(=S)NN)C(C)(C)C1=NNC(=S)NN
TGI [1]: > 100 µM | TGI [2]: > 100 µM | TGI [3]: > 100 µM | TGI [4]: > 100 µM | TGI [5]: > 100 µM | TGI [6]: > 100 µM | TGI [7]: > 100 µM | TGI [8]: > 100 µM | TGI [9]: > 100 µM | TGI [10]: > 100 µM | TGI [11]: > 100 µM | TGI [12]: > 100 µM | TGI [13]: > 100 µM | TGI [14]: > 100 µM | TGI [15]: > 100 µM | TGI [16]: > 100 µM | TGI [17]: > 100 µM | TGI [18]: > 100 µM | TGI [19]: > 100 µM | TGI [20]: > 100 µM | TGI [21]: > 100 µM | TGI [22]: > 100 µM | TGI [23]: > 100 µM | TGI [24]: > 100 µM | TGI [25]: > 100 µM | TGI [26]: > 100 µM | TGI [27]: > 100 µM | TGI [28]: > 100 µM | TGI [29]: > 100 µM | TGI [30]: > 100 µM | TGI [31]: > 100 µM | TGI [32]: > 100 µM | TGI [33]: > 100 µM | TGI [34]: > 100 µM | TGI [35]: > 100 µM | TGI [36]: > 100 µM | TGI [37]: > 100 µM | TGI [38]: > 100 µM | TGI [39]: > 100 µM | TGI [40]: > 100 µM | TGI [41]: > 100 µM | TGI [42]: > 100 µM | TGI [43]: > 100 µM | TGI [44]: > 100 µM | TGI [45]: > 100 µM

CC(=O)Nc1cccc2[nH]c3ccccc3c(=O)c12
TGI [1]: 38.7 µM | TGI [2]: 51.1 µM | TGI [46]: > 100 µM | TGI [3]: 26.2 µM | TGI [4]: > 100 µM | TGI [47]: 39.8 µM | TGI [5]: 29.5 µM | TGI [6]: 31.1 µM | TGI [7]: 64.1 µM | TGI [9]: 40.9 µM | TGI [10]: 50.1 µM | TGI [48]: 75.5 µM | TGI [12]: 94.8 µM | TGI [13]: 40.5 µM | TGI [15]: 55.6 µM | TGI [16]: 58.3 µM | TGI [17]: 50.1 µM | TGI [18]: 65.1 µM | TGI [19]: > 100 µM | TGI [20]: > 100 µM | TGI [49]: 38.6 µM | TGI [21]: 39.5 µM | TGI [50]: 28.6 µM | TGI [22]: 79.6 µM | TGI [51]: > 100 µM | TGI [23]: 43.8 µM | TGI [24]: 67.4 µM | TGI [52]: 42.7 µM | TGI [25]: > 100 µM | TGI [26]: 30.4 µM | TGI [27]: 53.6 µM | TGI [28]: 52.3 µM | TGI [29]: 45.1 µM | TGI [53]: 29.6 µM | TGI [30]: 54.2 µM | TGI [31]: 78.6 µM | TGI [32]: 45.3 µM | TGI [33]: 92.3 µM | TGI [34]: 51.1 µM | TGI [35]: 63.7 µM | TGI [38]: 70.3 µM | TGI [39]: 65.9 µM | TGI [54]: 41.2 µM | TGI [40]: 95.4 µM | TGI [41]: 83.3 µM | TGI [55]: 43.2 µM | TGI [42]: 51.1 µM | TGI [43]: 34 µM | TGI [44]: 50.2 µM | TGI [45]: 58.3 µM | TGI [56]: 32.7 µM
